This is an account of results in patent publication US11299485B2, “Thiophene derivative and use thereof” (FUJIMOTO CO., LTD., priority 2018, dated 2022).

Format in all cases: cell-based
In series [1] the test system is MM.1S cells. The series is described as follows: Human myeloma cell line MM.1S proliferation suppression test. Particulars: MM1.S, 72 h, compound 10 μM, 3 days, WST-1 or WST-8, read-out: cell survival rate (% of control) MM.1S. Summed up: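 Cells at 2×10^5 cells/mL in RPMI1640 + 10% FCS, mixed 1:1 with compound diluted from DMSO stock (final 10 μM) versus DMSO-only control. Cultured 3 days at 37 °C, 5% CO2; proliferation read with WST-1 or WST-8.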

In series [2] the test system is Pfeiffer cells. As to the kind of experiment: Human diffuse large B-cell lymphoma cell line Pfeiffer proliferation suppression test. Conditions: 144 h, compound 10 μM, 3 days + re-plating with compound 3 days, WST-8, read-out: cell survival rate (% of control) Pfeiffer. Summed up:
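Pfeiffer cells were seeded at 1.3×10^5 cells/mL and dosed the next day with compound at 10 μM final (DMSO control), then grown 3 days at 37 °C, 5% CO2. An aliquot was then passaged into a fresh plate with compound re-added at 10 μM final for 3 more days. Proliferation was read by WST-8.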
(In general: Formazan colour is commonly taken as a measure of viable cells.)

Series [3] deals with Kasumi-7 cells. The series is described as follows: Human acute lymphoblastic leukemia cell line Kasumi-7 proliferation suppression test. Particulars: 72 h, compound 10 μM, 3 days, WST-8, read-out: cell survival rate (% of control) Kasumi-7. Summed up:
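Cells seeded at 1.3×10^5 cells/mL in RPMI1640 with 20% FCS, cultured overnight at 37°C, 5% CO2, then treated with compound at 10 μM final; DMSO vehicle control. Proliferation read by WST-8 after 3 days' culture.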

The subject of series [4] is human peripheral blood mononuclear cells (PBMC). As to the kind of experiment: Cytotoxicity test using human peripheral blood mononuclear cells (PBMC). Conditions: LPS, 24 hr. Here is the method: Example 56: Cytotoxicity Test Using Human Peripheral Blood Mononuclear Cells (PBMC)
Peripheral blood of a healthy adult was collected in a Venoject II vacuum blood collection tube (Terumo, containing EDTA/2Na), and then diluted two-fold with an equal volume of OTSUKA NORMAL SALINE (Otsuka Pharmaceutical Co., Ltd.). The diluted blood was mixed with Lymphoprep (AXIS-SHIELD) in half the volume of the diluted blood, dispensed into a 15 mL conical tube, and centrifuged at room temperature for 20 min (2,100 rpm). The mononuclear cells accumulated at the interface between Lymphoprep and plasma was transferred to a 50 mL conical tube, diluted with OTSUKA NORMAL SALINE, and the mononuclear cells suspension was centrifuged at room temperature for 10 min (1,150 rpm) and then the supernatant was removed. The mononuclear cells fraction obtained as a precipitate was suspended in an appropriate amount of medium A, and diluted as appropriate with 0.4% trypan blue solution (Sigma-Aldrich Co. LLC.). The number of viable cells was counted with a hemocytometer (ERMA INC.). It was diluted with medium A such that the value obtained was 5×10^5 cells/mL. On the other hand, 37.5 μL of medium A, 2.5 μL of 0.4 mg/mL test compound solution (DMSO solution 10-fold diluted with medium A), and 10 μL of 10 μg/mL lipopolysaccharide (Sigma-Aldrich Co. LLC.) solution (diluted with medium A) were each added in advance to the same well of a Falcon 96-well flat bottom plate (Corning Incorporated), and the above-mentioned cell suspension was dispensed at 50 μL/well (final concentration of test compound 10 μg/mL). 2.5 μL of DMSO diluted 10-fold with medium A was added to the control well instead of the compound solution. After culturing at 37° C. in a 5% CO2 stream for 24 hr, the cell survival rate was measured using WST-1 (DOJINDO LABORATORIES) or WST-8 kit (KISHIDA CHEMICAL Co., Ltd.) and according to each instruction manual attached thereto.

The mark [5] stands for this setting: compound 10 μg/mL, WST-1 or WST-8.

Marks after values point to notes of the source that are not given here.

Take `CC(=O)c1ccc(-c2cn(C3CCC(=O)NC3=O)nn2)s1` (stereo not shown) [compound 8, 3-[4-(5-acetylthiophen-2-yl)-1H-1,2,3-triazol-1-yl]piperidine-2,6-dione]: the viability at 10 µM in series [1] worked out at 94%; in series [2] it was 107%; in series [3], 94%. The “cell survival rate (% of control) PBMC” value in series [4] (setting [5]) is given as 97 % of control.

Turning to `COc1c(-c2cn(C3CCC(=O)NC3=O)nn2)csc1C` (stereo not shown) [compound 15, 3-[4-(4-methoxy-5-methylthiophen-3-yl)-1H-1,2,3-triazol-1-yl]piperidine-2,6-dione], the viability at 10 µM in series [1] amounted to 55%; in series [2], 87%; in series [3], 60%. Also, the “cell survival rate (% of control) PBMC” value in series [4] (setting [5]) is 105 % of control.

As for `COCc1ccc(COc2cscc2-c2cn(C3CCC(=O)NC3=O)nn2)cc1` (stereo not shown) [compound 37, 3-(4-{4-[4-(methoxymethyl)benzyloxy]thiophen-3-yl}-1H-1,2,3-triazol-1-yl)piperidine-2,6-dione], the viability at 10 µM in series [1] worked out at 24%; in series [2] it was 71%; in series [3], 38%. Besides, the “cell survival rate (% of control) PBMC” value in series [4] (setting [5]) is recorded as 99 % of control.

As to `O=C1CCC(n2nnc(-c3ccsc3)c2Cl)C(=O)N1` (stereo not shown) [compound 4, 3-[5-chloro-4-(thiophen-3-yl)-1H-1,2,3-triazol-1-yl]piperidine-2,6-dione], the viability at 10 µM amounted to 87% in series [1], 98% in series [2] and 91% in series [3]. The “cell survival rate (% of control) PBMC” value in series [4] (setting [5]) is reported as 112 % of control.

Regarding `COc1cc(-c2cn(C3CCC(=O)NC3=O)nn2)cs1` (stereo not shown) [compound 20, 3-[4-(5-methoxythiophen-3-yl)-1H-1,2,3-triazol-1-yl]piperidine-2,6-dione], the figures for the viability at 10 µM in series [1], in series [2] and in series [3] were 35%, 81% and 53%, respectively. The “cell survival rate (% of control) PBMC” value in series [4] (setting [5]) is reported as 104 % of control.

Regarding `O=C1CCC(n2cc(-c3cscc3OC3CCCC3)nn2)C(=O)N1` (stereo not shown) [compound 27, 3-{4-[4-(cyclopentyloxy)thiophen-3-yl]-1H-1,2,3-triazol-1-yl}piperidine-2,6-dione], the figures for the viability at 10 µM in series [1], in series [2] and in series [3] were 82%, 98% and 83%, respectively. In series [4] (setting [5]), the “cell survival rate (% of control) PBMC” value is listed as 107 % of control.

As for `CN(C)Cc1ccc(COc2cscc2-c2cn(C3CCC(=O)NC3=O)nn2)cc1.Cl` (stereo not shown) [compound 46, 3-[4-(4-{4-[(dimethylamino)methyl]benzyloxy}thiophen-3-yl)-1H-1,2,3-triazol-1-yl]piperidine-2,6-dione hydrochloride], the viability at 10 µM in series [1] amounted to 35%; in series [2], 84%; in series [3] it was 35%. For the same compound, the “cell survival rate (% of control) PBMC” value in series [4] (setting [5]) is 110 % of control.

For the compound `O=C1CCC(n2cc(-c3ccc(Br)s3)nn2)C(=O)N1` (stereo not shown) [compound 12, 3-[4-(5-bromothiophen-2-yl)-1H-1,2,3-triazol-1-yl]piperidine-2,6-dione], the viability at 10 µM in series [1] turned out to be 74%; in series [2] it was 94%; in series [3] it was 89%. In series [4] (setting [5]), the “cell survival rate (% of control) PBMC” value is 101 % of control.

Turning to `CC(C)Oc1cscc1-c1cn(C2CCC(=O)NC2=O)nn1` (stereo not shown) [compound 26, 3-[4-(4-isopropoxythiophen-3-yl)-1H-1,2,3-triazol-1-yl]piperidine-2,6-dione], the results for the viability at 10 µM in series [1], in series [2] and in series [3] were 40%, 82% and 50%, respectively. Further, the “cell survival rate (% of control) PBMC” value in series [4] (setting [5]) was 42 % of control.

With `O=C1CCC(n2cc(-c3cscc3OCc3ccccc3)nn2)C(=O)N1` (stereo not shown) [compound 32, 3-{4-[4-(benzyloxy)thiophen-3-yl]-1H-1,2,3-triazol-1-yl}piperidine-2,6-dione], the results for the viability at 10 µM in series [1], in series [2] and in series [3] were 27%, 60% and 36%, respectively. The “cell survival rate (% of control) PBMC” value in series [4] (setting [5]) is listed as 66 % of control.

`COc1cscc1-c1cn(C2CCC(=O)NC2=O)nn1` (stereo not shown) [compound 19, 3-[4-(4-methoxythiophen-3-yl)-1H-1,2,3-triazol-1-yl]piperidine-2,6-dione]: the viability at 10 µM in series [1] came out at 24%; in series [2] it was 11%; in series [3], 24%. Also, the “cell survival rate (% of control) PBMC” value in series [4] (setting [5]) was 99 % of control.

As for `Cc1cc(-c2cn(C3CCC(=O)NC3=O)nn2)cs1` (stereo not shown) [compound 6, 3-[4-(5-methylthiophen-3-yl)-1H-1,2,3-triazol-1-yl]piperidine-2,6-dione], the viability at 10 µM amounted to 63% in series [1], 100% in series [2] and 72% in series [3]. In addition, in series [4] (setting [5]), the “cell survival rate (% of control) PBMC” value is given as 96 % of control.

Consider `O=C1CCC(n2cc(-c3cscc3OCc3cccnc3)nn2)C(=O)N1` (stereo not shown) [compound 35, 3-{4-[4-(pyridin-3-ylmethoxy)thiophen-3-yl]-1H-1,2,3-triazol-1-yl}piperidine-2,6-dione], for which the viability at 10 µM in series [1] was found to be 55%; in series [2], 104%; in series [3], 53%. In addition, the “cell survival rate (% of control) PBMC” value in series [4] (setting [5]) is listed as 100 % of control.

Regarding `COc1ccc(COc2cscc2-c2cn(C3CCC(=O)NC3=O)nn2)cc1` (stereo not shown) [compound 31, 3-{4-[4-(4-methoxybenzyloxy)thiophen-3-yl]-1H-1,2,3-triazol-1-yl}piperidine-2,6-dione], the viability at 10 µM turned out to be 27% in series [1], 82% in series [2] and 43% in series [3]. For the same compound, the “cell survival rate (% of control) PBMC” value in series [4] (3 μg/mL due to precipitation of compound in medium) is 106** % of control.

As to `COc1sccc1-c1cn(C2CCC(=O)NC2=O)nn1` (stereo not shown) [compound 18, 3-[4-(2-methoxythiophen-3-yl)-1H-1,2,3-triazol-1-yl]piperidine-2,6-dione], the figures for the viability at 10 µM in series [1], in series [2] and in series [3] were 27%, 70% and 52%, respectively. Further, in series [4] (setting [5]), the “cell survival rate (% of control) PBMC” value is reported as 53 % of control.

As to `O=C1CCC(n2cc(-c3cscc3Cl)nn2)C(=O)N1` (stereo not shown) [compound 14, 3-[4-(4-chlorothiophen-3-yl)-1H-1,2,3-triazol-1-yl]piperidine-2,6-dione], the viability at 10 µM in series [1] stood at 43%; in series [2], 74%; in series [3] it was 64%. For the same compound, the “cell survival rate (% of control) PBMC” value in series [4] (setting [5]) was 113 % of control.

For `O=C1CCC(n2cc(-c3cccs3)nn2)C(=O)N1` (stereo not shown) [compound 3, 3-[4-(thiophen-2-yl)-1H-1,2,3-triazol-1-yl]piperidine-2,6-dione], the viability at 10 µM in series [1] was 59%; in series [2], 96%; in series [3], 81%. Besides, in series [4] (setting [5]), the “cell survival rate (% of control) PBMC” value is 89 % of control.

Take `O=C1CCC(n2cc(-c3cscc3OCC3CC3)nn2)C(=O)N1` (stereo not shown) [compound 28, 3-{4-[4-(cyclopropylmethoxy)thiophen-3-yl]-1H-1,2,3-triazol-1-yl}piperidine-2,6-dione]: the viability at 10 µM in series [1] came to 68%; in series [2], 91%; in series [3], 75%. In addition, the “cell survival rate (% of control) PBMC” value in series [4] (setting [5]) is given as 89 % of control.

In the case of `O=C1CCC(n2cc(-c3scc4c3OCCO4)nn2)C(=O)N1` (stereo not shown) [compound 10, 3-[4-(2,3-dihydrothieno[3,4-b][1,4]dioxin-5-yl)-1H-1,2,3-triazol-1-yl]piperidine-2,6-dione], the results for the viability at 10 µM in series [1], in series [2] and in series [3] were 78%, 113% and 72%, respectively. Besides, the “cell survival rate (% of control) PBMC” value in series [4] (setting [5]) was 97 % of control.
